Measured values: US10201535B2 (priority 2011, dated 2019)

What was measured:
[1] = tested on: 37° C. induced vessel dilation (cutaneous blood flow) in rat paws; assay: Rat Blood Flow Assay (laser Doppler flowmetry, hind foot pad); type: in vivo; details: 4 days of topical dosing (once per day), 0.1%, hairless CD rats
Protocol: A laser Doppler microvascular perfusion monitor (laser Doppler flowmetry technique, LDF) was used to monitor red blood cell perfusion in the microvasculature of the hind foot pad. The laser doppler flowmetry (LDF) is an OxyFlo Microvascular Perfusion Monitor, from Oxford Optronix Ltd. UK.
Briefly, 15 μL of test articles was applied topically once, or repeatedly (once daily for 4 consecutive days) to one hind foot pad of anaesthetized hairless CD rats and 15 μL of vehicle was applied to the other footpad.
At various timepoints up to 8 hrs following the last test article administration, dynamic blood flow changes were measured and recorded every 15 seconds for 4 minutes per temperature interval for 5 intervals (22° C.→37° C.→4° C.→37° C.→22° C.).
Rats were placed on a 37° C. heat pad to increase their temperature and on an ice pad to decrease their temperature to 4° C. The levels of blood flow in the two paws were compared.
The % blood flow inhibition is calculated as the % difference in the AUC of peak 1 (first 8 min heating and cooling interval) of the laser doppler recordings between the drug-treated and vehicle-treated paws. Data are the mean % inhibition values from 8-10 rats per group.

[2] = Protocol: To assure the integrity of each skin section, its permeability to tritiated water was determined before application of the test products.
[3] = tested on: LL-37-induced skin inflammation; assay: LL-37-Induced Skin Inflammation Mouse Model (ear swelling); type: in vivo; details: at 6 and 9 hrs after topical treatment, gel on ears of BALB/c mice
Protocol: One hour following application, the left ear was intradermally injected with LL-37 peptide and the right ear was injected with phosphate-buffered saline (PBS). Ear thickness measurements were made with a digital caliper (Mitutoyo) at various timepoints up to 8 hrs post-injection with LL-37. Ear swelling is an indicator of inflammation.
The data are the mean values from 9-10 mice per group.

[4] = tested on: UVB-induced erythema, cutaneous vessel dilation and tactile hypersensitivity in SKH1 hairless mice; assay: Ultraviolet B-Induced Mouse Sunburn Model; type: in vivo
Description: SKH1 hairless mice, lying on their stomachs with their left sides covered, were exposed to UVB at an intensity of 120 mJ/cm^2 for 91 sec. […] At various timepoints up to 48 hrs post UVB-irradiation, the following assessments were made:
1. Vasculature area in the exposed and unexposed ears by image analysis of digital photos using ImagePro Premier (Media Cybernetics) software. Images are converted to gray-scale, expanded and thresholding, based on each ear's baseline pixel values, is applied to the images. Thresholding differentiates the desired “object” features (i.e. vasculature network) from the background (i.e. skin tissue). The “object” pixels are then quantified and reported as the vasculature area.
2. Erythema on the exposed and unexposed back using a Chromameter (Konica Minolta).
3. Tactile hypersensitivity assessment using a paint brush test. The hypersensitivity is assessed by light stroking of the flank of the mice with a small paint brush every 5 min over 35 min. The behavioral response is scored as follows: 0, no response; 1, mild squeaking with attempts to move away from the brush; 2, vigorous squeaking evoked by the brush, biting at the brush and strong efforts to escape. The scores at the eight timepoints are summed so the maximum hypersensitivity score for each mouse can be 16. The exposed (right) and unexposed (left) flanks were scored independently.

[5] = tested on: UVB-exposed skin of SKH1 hairless mice; assay: Mouse Model of UV-Induced Erythema (histology of back skin); type: in vivo; details: for mice with overall healing good to excellent / EPIDERMIS Hyperplasia / DERMIS Congestion / DERMIS Edema / DERMIS Infiltrates / EPIDERMIS Disorganization / EPIDERMIS Necrosis / EPIDERMIS Separation: skin 48 hours after UVB; for EPIDERMIS Hyperplasia / DERMIS Congestion / DERMIS Edema / DERMIS Infiltrates / EPIDERMIS Disorganization / EPIDERMIS Necrosis / EPIDERMIS Separation: mean grade
Protocol: The right backs of male SKH1 hairless mice were exposed to 120 mJ/cm^2 UVB radiation, while the left sides were shielded. […] An additional group with vehicle applied topically at 20 minutes post UVB exposure served as a control. Samples of skin from the backs from both left and right sides were collected 48 hours following UVB exposure and examined histologically.
Each endpoint is graded on a scale of 0-4 (0=no findings, 1=minimal, 2=mild, 3=moderate, 4=marked). Data are expressed as the mean of values from 6 mice per group.

[6] = 0.1% topical, 20 minutes following UVB exposure
[7] = scale 0-4, 0.1% topical 20 min after UVB
[8] = scale 0-4, 0.1% topical 4 hr after UVB
[9] = scale 0-4, 0.1% topical 8 hr after UVB

c1cnc2c(c1)CC[C@H](Cc1c[nH]cn1)C2 [(S)-(+)-7-(1H-Imidazol-4-ylmethyl)-5,6,7,8-tetrahydro-quinoline]
duration of statistically significant inhibition of 37° C. induced vessel dilation [1]: at least 6 hrs
penetration into and through skin [2]: does penetrate into and through ex vivo human trunk skin
distribution in skin layers (mass recovered) ([2]; 48 hour dose exposure, 0.58% (w/w) dose, FIG. 3): higher concentration in the epidermis
rate of percutaneous absorption (flux into receptor solution) ([2]; human): increased rate of flux at the 18 and 36 hr timepoints
inhibition of LL-37-induced skin inflammation (ear swelling) [3]: statistically significant inhibition
duration of statistically significant reduction of erythema to nearly baseline levels (chromameter) ([4]; topical dosing to the back 30 min following UVB exposure): at least 48 hrs
tactile hypersensitivity (paint brush test) ([4]; topical dosing to the back 30 min following UVB exposure, assessed 4 hrs following UVB irradiation, both UV-exposed and control sides): statistically significant reduction of tactile hypersensitivity
duration of statistically significant cutaneous vasoconstriction (reduction of cutaneous vasculature area) to nearly baseline levels ([4]; topical dosing to the ear 30 min following UVB exposure): at least 48 hrs
edema, mixed inflammatory cell infiltrates and vascular congestion of the underlying dermis [5, 6]: significantly reduced
outcome of healing of UVB-exposed back skin [5, 6]: significantly improved the outcome of healing
mice with overall healing good to excellent ([5]; 0.1% topical, treated at 20 minutes post UVB exposure): 75%
mice with overall healing good to excellent ([5]; 0.1% topical, treated at 4 hours post UVB exposure): 50%
mice with overall healing good to excellent ([5]; 0.1% topical, treated at 8 hours post UVB exposure): 60%
mice with epidermal failure (moderate to marked separation and necrosis) ([5]; 0.1% topical, treated up to 8 hours following UVB exposure (all treated mice)): 8%
EPIDERMIS Hyperplasia ([5]; scale 0-4 (0=no findings, 4=marked), 0.1% topical 20 min after UVB): 3.0
DERMIS Congestion [5, 7]: 1.0
DERMIS Edema [5, 7]: 0.5
DERMIS Infiltrates [5, 7]: 0.8
EPIDERMIS Disorganization [5, 7]: 2.0
EPIDERMIS Necrosis [5, 7]: 0.5
EPIDERMIS Separation [5, 7]: 0.3
DERMIS Congestion [5, 8]: 1.8
DERMIS Edema [5, 8]: 2.0
DERMIS Infiltrates [5, 8]: 2.0
EPIDERMIS Disorganization [5, 8]: 3.0
EPIDERMIS Hyperplasia [5, 8]: 2.3
EPIDERMIS Necrosis [5, 8]: 1.3
EPIDERMIS Separation [5, 8]: 1.3
DERMIS Congestion [5, 9]: 1.0
DERMIS Edema [5, 9]: 1.5
DERMIS Infiltrates [5, 9]: 0.8
EPIDERMIS Disorganization [5, 9]: 2.0
EPIDERMIS Hyperplasia [5, 9]: 3.3
EPIDERMIS Necrosis [5, 9]: 1.0
EPIDERMIS Separation [5, 9]: 1.3
